Assay results published in US20210122746A1, “FEBRIFUGINE DERIVATIVES” (BRISTOL-MYERS SQUIBB COMPANY, priority 2017, published 2021).
Structures can show the parent of a compound that is named as a salt.

Biological target: T1, human ProRS (prolyl tRNA synthetase moiety of glutamyl prolyl tRNA synthetase) (Homo sapiens, UniProt P07814)
T1 construct: The prolyl tRNA synthetase moiety (ProRS) in the cDNA of glutamyl prolyl tRNA synthetase was subcloned; 6xHis (N, cleaved yes); made in house; host or cells: E. coli BL21 (DE3)
T1 sequence (P07814 1007-1512 limits assumed): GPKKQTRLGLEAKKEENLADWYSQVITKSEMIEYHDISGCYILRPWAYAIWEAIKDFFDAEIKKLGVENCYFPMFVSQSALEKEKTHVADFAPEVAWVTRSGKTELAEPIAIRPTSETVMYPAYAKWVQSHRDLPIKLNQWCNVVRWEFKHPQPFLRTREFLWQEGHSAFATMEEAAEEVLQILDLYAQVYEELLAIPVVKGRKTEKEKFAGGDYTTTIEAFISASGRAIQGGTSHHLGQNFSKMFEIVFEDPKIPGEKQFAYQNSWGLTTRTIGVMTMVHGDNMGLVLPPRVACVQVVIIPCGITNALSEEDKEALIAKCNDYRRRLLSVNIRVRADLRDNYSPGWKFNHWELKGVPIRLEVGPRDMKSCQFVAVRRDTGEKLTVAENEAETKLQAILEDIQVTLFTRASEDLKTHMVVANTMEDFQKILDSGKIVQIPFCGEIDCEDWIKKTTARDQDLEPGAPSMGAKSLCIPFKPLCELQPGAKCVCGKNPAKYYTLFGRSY
Experiment: Assay for inhibitors of prolyl tRNA synthetase activity (ProRS assay, labeled proline incorporation)
Type: biochemical
Conditions: ProRS 20 nM, compounds 10 μM to 0.5 nM, 10 min at 37° C.; read-out: EPR IC50
From the text: In order to establish the activities of the compounds highlighted above, we determined extent of inhibition of prolyl tRNA synthetase activity in dose response curves to obtain IC50 values.
The prolyl tRNA synthetase moiety (ProRS) in the cDNA of glutamyl prolyl tRNA synthetase was subcloned, tagged with a single biotin, purified and used in the assay. Briefly, human ProRS with a 6× N-terminal His tag in pET28N with TVMV BioP was transformed in E. coli BL21 (DE3) cells, selected, overexpressed and purified using a Ni Seph 6 FF XK 16/20 column in the first stage. Ni-NTA eluates were pooled and treated with TVMV protease, and biotinylated using d-Biotin, MgCl2, ATP and the BirA enzyme. This was rerun through a Ni column as before. The eluates were further enriched and purified using membrane ultrafiltration and a SuperDex 200 XK 16/60 column, and peak fractions were confirmed by SDS-PAGE prior to protein amount determination, aliquoting and storage at −80° C.
ProRS assay was performed in 96 well plates in a final reaction volume of 20 μl, using staggered additions of Tris-Cl (pH 7.5, 60 mM), dithiothreitol (2 mM), ATP (5 mM, pH 7.0), MgCl2 6 mM), ProRS (20 nM, with pre-determined active fraction range) and bovine tRNA (20 μg). Controls and compounds, at various concentrations (10 μM to 0.5 nM), were incubated on ice with enzyme mix for 15 min followed by addition of proline (non-labeled and labeled, 3.96 and 1.04 μM (1 μCi) respectively) to initiate the reaction. Reaction was carried out for 10 min at 37° C. and terminated by addition of TCA (10%, 100 μl). Reaction mix was collected on a Whatman GF/B filter using a vacuum filtration manifold. This filter was washed 3 times with 5% TCA followed by 2 washes with ethanol, air dried, and read using a liquid scintillation counter (TopCount NXT) using MicroScint O. IC50 values were calculated and analyzed using ToolSet (4-parameter plot) and depicted herein.

IC50 | SMILES
14 nM | O=C(C[C@H]1NCCC[C@@H]1O)Cn1cnc2ccncc2c1=O [Example 8, 3-{3-[(2R,3S)-3-hydroxypiperidin-2-yl]-2-oxopropyl}pyrido[4,3-d]pyrimidin-4(3H)-one dihydrochloride]
172 nM | Cc1cc(-c2ccc(F)c(F)c2)nc2c(=O)n(C[C@@H](O)C[C@H]3NCCC[C@@H]3O)cnc12 [Example 27, 6-(3,4-difluorophenyl)-3-((S)-2-hydroxy-3-((2R,3S)-3-hydroxypiperidin-2-yl)propyl)-8-methylpyrido[3,2-d]pyrimidin-4(3H)-one dihydrochloride]
10 nM | O=C(C[C@H]1NCCC[C@@H]1O)Cn1cnc2ccc(-c3cccc(Cl)c3)nc2c1=O [Example 5, 6-(3-chlorophenyl)-3-{3-[(2R,3S)-3-hydroxypiperidin-2-yl]-2-oxopropyl}pyrido[3,2-d]pyrimidin-4(3H)-one dihydrochloride]
2180 nM | Cc1cc(C)c2ncn(C[C@@H](O)C[C@@H]3CCCCN3)c(=O)c2n1 [Example 36, 3-{(S)-2-hydroxy-3-[(S)-piperidin-2-yl]propyl}-6,8-dimethylpyrido[3,2-d]pyrimidin-4(3H)-one dihydrochloride]
23 nM | Cc1cc(-c2cccc(Cl)c2)nc2c(=O)n(C[C@@H](O)C[C@H]3NCCC[C@@H]3O)cnc12 [Example 33, 6-(3-chlorophenyl)-3-{(S)-2-hydroxy-3-[(2R,3S)-3-hydroxypiperidin-2-yl]propyl}-8-methylpyrido[3,2-d]pyrimidin-4(3H)-one dihydrochloride]
2300 nM | O=c1c2cnccc2ncn1C[C@@H](O)C[C@H]1NCC[C@@H]1O [Example 38, 3-{(S)-2-hydroxy-3-[(2R,3S)-3-hydroxypyrrolidin-2-yl]-propyl}pyrido[4,3-d]pyrimidin-4(3H)-one bis (2,2,2-trifluoroacetic acid)]
159 nM | Cc1cc(C(F)(F)F)cc2c(=O)n(CC(=O)C[C@@H]3CCCCN3)cnc12 [Example 19, (S)-8-methyl-3-{2-oxo-3-[piperidin-2-yl]propyl}-6-(trifluoromethyl)quinazolin-4(3H)-one 2,2,2-trifluoroacetate]
8 nM | Cc1cc(-c2cccc(C(F)(F)F)c2)nc2c(=O)n(CC(=O)C[C@H]3NCCC[C@@H]3O)cnc12 [Example 15, 3-{3-[(2R,3S)-3-hydroxypiperidin-2-yl]-2-oxopropyl}-8-methyl-6-(3-(trifluoromethyl)phenyl)pyrido[3,2-d]pyrimidin-4(3H)-one bis(2,2,2-trifluoroacetic acid)]
3 nM | Cc1cc(-c2cccc(Cl)c2)nc2c(=O)n(CC(=O)C[C@H]3NCCC[C@@H]3O)cnc12 [Example 16, 6-(3-chlorophenyl)-3-{3-[(2R,3S)-3-hydroxypiperidin-2-yl]-2-oxopropyl}-8-methylpyrido[3,2-d]pyrimidin-4(3H)-one bis(2,2,2-trifluoroacetate)]
9 nM | O=C(C[C@H]1NCCC[C@@H]1O)Cn1cnc2ccc(-c3cccnc3)nc2c1=O [Example 11, 3-{3-[(2R,3S)-3-hydroxypiperidin-2-yl]-2-oxopropyl}-6-(pyridin-3-yl)pyrido[3,2-d]pyrimidin-4(3H)-one trihydrochloride]
8 nM | O=c1c2nc(-c3cccc(F)c3)ccc2ncn1C[C@@H](O)CC1NCCC[C@@H]1O (stereo partly drawn) [Example 24, 6-(3-Fluorophenyl)-3-{(2S)-2-hydroxy-3-[(3S)-3-hydroxypiperidin-2-yl]propyl}pyrido[3,2-d]pyrimidin-4(3H)-one dihydrochloride]
60 nM | O=C(C[C@@H]1CCCCN1)Cn1cnc2ccncc2c1=O [Example 20, (S)-3-{2-oxo-3-[piperidin-2-yl-propyl-pyrido(4,3-d)]}pyrimidin-4(3H)-one-dihydrochloride]
80 nM | O=c1c2cnccc2ncn1C[C@@H](O)C[C@H]1NCCC[C@@H]1O [Example 26, 3-{(S)-2-Hydroxy-3-[(2R,3S)-3-hydroxypiperidin-2-yl]propyl}pyrido[4,3-d]pyrimidin-4(3H)-one dihydrochloride]
807 nM | Cc1cc(Cl)cc2c(=O)n(CC(=O)CC3CCCCN3)cnc12 (stereo not shown) [Example 4, 6-Chloro-8-methyl-3-[2-oxo-3-(piperidin-2-yl)propyl]quinazolin-4(3H)-one hydrochloride]
1390 nM | Cc1cc(C(C)C)cc2c(=O)n(C[C@@H](O)C[C@@H]3CCCCN3)cnc12 [Example 35, 3-{(S)-2-hydroxy-3-[(S)-piperidin-2-yl]-propyl}-6-isopropyl-8-methylquinazolin-4(3H)-one hydrochloride]
71 nM | Cc1cc(Cl)cc2c(=O)n(CC(=O)CC3CCCCN3)cnc12 (stereo not shown) [Example 3, 6-Chloro-8-methyl-3-[2-oxo-3-(piperidin-2-yl)propyl]quinazolin-4(3H)-one hydrochloride]
27 nM | Cc1cc(-c2cccc(C(F)(F)F)c2)nc2c(=O)n(C[C@@H](O)C[C@H]3NCCC[C@@H]3O)cnc12 [Example 28, 3-{(2S)-2-hydroxy-3-[(2R,3S)-3-hydroxy-2-piperidyl]propyl}-8-methyl-6-[3-(trifluoromethyl)phenyl]pyrido[3,2-d]pyrimidin-4-one;dihydrochloride]
17 nM | Cc1cc(C(F)(F)F)nc2c(=O)n(CC(=O)C[C@H]3NCCC[C@@H]3O)cnc12 [Example 13, 3-{3-[(2R,3S)-3-hydroxypiperidin-2-yl]-2-oxopropyl}-8-methyl-6-(trifluoromethyl)pyrido[3,2-d]pyrimidin-4(3H)-one dihydrochloride]
8 nM | O=C(C[C@H]1NCCC[C@@H]1O)Cn1cnc2ccc(-c3ccc(F)c(F)c3)nc2c1=O [Example 9, 6-(3,4-difluorophenyl)-3-{3-[(2R,3S)-3-hydroxypiperidin-2-yl]-2-oxopropyl}pyrido[3,2-d]pyrimidin-4(3H)-one dihydrochloride]
13 nM | Cc1cc(C2CC2)nc2c(=O)n(CC(=O)C[C@H]3NCCC[C@@H]3O)cnc12 [Example 12, 6-cyclopropyl-3-(3-((2R,3S)-3-hydroxypiperidin-2-yl)-2-oxopropyl)-8-methylpyrido[3,2-d]pyrimidin-4(3H)-one dihydrochloride]
7 nM | Cc1cc(-c2cccc(F)c2)nc2c(=O)n(CC(=O)C[C@H]3NCCC[C@@H]3O)cnc12 [Example 14, 6-(3-fluorophenyl)-3{3-[(2R,3S)-3-hydroxypiperidin-2-yl]-2-oxopropyl}-8-methylpyrido[3,2-d]pyrimidin-4(3H)-one dihydrochloride]
23 nM | O=C(C[C@H]1NCCC[C@@H]1O)Cn1cnc2ccc(-c3cccc(C(F)(F)F)c3)nc2c1=O [Example 6, 3-{3-[(2R,3S)-3-Hydroxypiperidin-2-yl]-2-oxopropyl}-6-[3-(trifluoromethyl)phenyl]pyrido[3,2-d]pyrimidin-4(3H)-one dihydrochloride]
> 8000 nM | Cc1cc(C(F)(F)F)cn2c(=O)c(NC(=O)C[C@H]3NCCC[C@@H]3O)cnc12 [Example 41, 2-((2R,3S)-3-hydroxypiperidin-2-yl)-N-(9-methyl-4-oxo-7-(trifluoromethyl)-4H-pyrido[1,2-a]pyrimidin-3-yl)acetamide 2,2,2-trifluoroacetic acid]
140 nM | Cc1cc(C(C)C)cc2c(=O)n(CC(=O)C[C@@H]3CCCCN3)cnc12 [Example 18, (S)-6-isopropyl-8-methyl-3-{2-oxo-3-[piperidin-2-yl]propyl}quinazolin-4(3H)-one hydrochloride]
> 10000 nM | Cc1cc(C)c2ncn(C[C@@H](O)C[C@H]3NCC[C@@H]3O)c(=O)c2n1 [Example 37, 3-{(S)-2-hydroxy-3-[(2R,3S)-3-hydroxypyrrolidin-2-yl]propyl}-6,8-dimethylpyrido(3,2-d)pyrimidin-4(3H)-one bis (2,2,2-trifluoroacetic acid)]
